Experimental data taken from PubChem BioAssay AID2060498 (Molecular Pharmacology Branch, DTP, NCI, 2025).

Test system: 171881-019-R-J1-PDC tumor spheroids, viability
Assay: Anticancer human tumor 171881-019-R-J1-PDC patient-derived invasive breast carcinoma cell line growth inhibition [GQUAD]
Settings: spheroids with HUVEC and MSC; for IC50: curve of first compound; for viability, T/C: stronger effect = lower value
In short: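 Multi-cell-type spheroids of tumor cells with HUVEC and mesenchymal stem cells, treated with drug combinations. Concentrations descend in half-log steps from near clinical Cmax, or from 10 microM where Cmax is unknown; viability read-out.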

[1] = second compound 0.0316 µM, first compound 0.0316 µM
[2] = second compound 0.0316 µM, first compound 0.1 µM
[3] = second compound 0.0316 µM, first compound 0.316 µM
[4] = second compound 0.0316 µM, first compound 1 µM
[5] = second compound 0.0316 µM, first compound 3.16 µM
[6] = second compound 0.0316 µM, first compound 10 µM
[7] = second compound 0.1 µM, first compound 0.0316 µM
[8] = second compound 0.1 µM, first compound 0.1 µM
[9] = second compound 0.1 µM, first compound 0.316 µM
[10] = second compound 0.1 µM, first compound 1 µM
[11] = second compound 0.1 µM, first compound 3.16 µM
[12] = second compound 0.1 µM, first compound 10 µM
[13] = second compound 0.316 µM, first compound 0.0316 µM
[14] = second compound 0.316 µM, first compound 0.1 µM
[15] = second compound 0.316 µM, first compound 0.316 µM
[16] = second compound 0.316 µM, first compound 1 µM
[17] = second compound 0.316 µM, first compound 3.16 µM
[18] = second compound 0.316 µM, first compound 10 µM
[19] = second compound 1 µM, first compound 0.0316 µM
[20] = second compound 1 µM, first compound 0.1 µM
[21] = second compound 1 µM, first compound 0.316 µM
[22] = second compound 1 µM, first compound 1 µM
[23] = second compound 1 µM, first compound 3.16 µM
[24] = second compound 1 µM, first compound 10 µM
[25] = second compound 3.16 µM, first compound 0.0316 µM
[26] = second compound 3.16 µM, first compound 0.1 µM
[27] = second compound 3.16 µM, first compound 0.316 µM
[28] = second compound 3.16 µM, first compound 1 µM
[29] = second compound 3.16 µM, first compound 3.16 µM
[30] = second compound 3.16 µM, first compound 10 µM
[31] = second compound 10 µM, first compound 0.0316 µM
[32] = second compound 10 µM, first compound 0.1 µM
[33] = second compound 10 µM, first compound 0.316 µM
[34] = second compound 10 µM, first compound 1 µM
[35] = second compound 10 µM, first compound 3.16 µM
[36] = second compound 10 µM, first compound 10 µM
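Further: spheroids exposed to compounds for 7 days.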
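Wherever viability, T/C is given: 100% = DMSO vehicle control viability.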

Work on `C#Cc1c(F)ccc2cc(O)cc(-c3ncc4c(N5CC6CCC(C5)N6)nc(OCC56CCCN5CC(F)C6)nc4c3F)c12` (stereo unspecified) + CN(C)c1ccc(Nc2c3ccc(NC(=O)CCN4CCCC4)cc3nc3cc(NC(=O)CCN4CCCC4)ccc23)cc1 yielded an IC50 (second compound 0.0316 µM) of 509 nM, an IC50 (second compound 0.1 µM) of 362 nM and an IC50 (second compound 0.316 µM) of under 31.6 nM. The IC50 (second compound 1 µM) was under 31.6 nM, the IC50 (second compound 3.16 µM) was under 31.6 nM and the IC50 (second compound 10 µM) was under 31.6 nM. The viability, T/C [1] was 91.8%, the viability, T/C [2] was 77.2% and the viability, T/C [3] was 53.9%. It also gave a viability, T/C [4] of 41.5%, a viability, T/C [5] of 25.2% and a viability, T/C [6] of 11.2%. For the same compound, the viability, T/C [7] was 87.8%, the viability, T/C [8] was 68.1% and the viability, T/C [9] was 52%. The viability, T/C [10] was 35%, the viability, T/C [11] was 23.7% and the viability, T/C [12] was 8.76%. The viability, T/C [13] was 43.1%, the viability, T/C [14] was 33.4% and the viability, T/C [15] was 24.5%. It also gave a viability, T/C [16] of 15.3%, a viability, T/C [17] of 11.9% and a viability, T/C [18] of 0.81%. It also gave a viability, T/C [19] of 3.77%, a viability, T/C [20] of 3.04% and a viability, T/C [21] of 3.15%. It also gave a viability, T/C [22] of 1.14%, a viability, T/C [23] of 1% and a viability, T/C [24] of 0.07%. The viability, T/C [25] was 0.2%, the viability, T/C [26] was 0.29% and the viability, T/C [27] was 0.47%. The viability, T/C [28] was 0.22%, the viability, T/C [29] was 0.17% and the viability, T/C [30] was 0.1%. The viability, T/C [31] was 0.11%, the viability, T/C [32] was 0.1% and the viability, T/C [33] was 0.13%. The viability, T/C [34] was 0.26%, the viability, T/C [35] was 0.26% and the viability, T/C [36] was 0.13%.

In the case of `CC(=O)O[C@H]1C(=O)[C@@]2(C)[C@H]([C@H](OC(=O)c3ccccc3)[C@]3(O)C[C@H](OC(=O)[C@H](O)[C@@H](NC(=O)c4ccccc4)c4ccccc4)C(C)=C1C3(C)C)[C@]1(OC(C)=O)CO[C@@H]1C[C@@H]2O` + CN(C)c1ccc(Nc2c3ccc(NC(=O)CCN4CCCC4)cc3nc3cc(NC(=O)CCN4CCCC4)ccc23)cc1, the IC50 (second compound 0.0316 µM) is reported as under 31.6 nM, the IC50 (second compound 0.1 µM) is reported as under 31.6 nM and the IC50 (second compound 0.316 µM) is reported as under 31.6 nM. It also gave an IC50 (second compound 1 µM) of under 31.6 nM, an IC50 (second compound 3.16 µM) of under 31.6 nM and an IC50 (second compound 10 µM) of under 31.6 nM. For the same compound, the viability, T/C [1] was 43.1%, the viability, T/C [2] was 29.6% and the viability, T/C [3] was 29.1%. It also gave a viability, T/C [4] of 25.7%, a viability, T/C [5] of 27.4% and a viability, T/C [6] of 26.6%. For the same compound, the viability, T/C [7] was 44.7%, the viability, T/C [8] was 32.1% and the viability, T/C [9] was 26.8%. The viability, T/C [10] was 28.4%, the viability, T/C [11] was 26.4% and the viability, T/C [12] was 25.6%. The viability, T/C [13] was 25.1%, the viability, T/C [14] was 22.9% and the viability, T/C [15] was 20.6%. The viability, T/C [16] was 14.4%, the viability, T/C [17] was 19.6% and the viability, T/C [18] was 15.7%. It also gave a viability, T/C [19] of 3.67%, a viability, T/C [20] of 2.91% and a viability, T/C [21] of 3.17%. For the same compound, the viability, T/C [22] was 2.09%, the viability, T/C [23] was 2.08% and the viability, T/C [24] was 2.43%. For the same compound, the viability, T/C [25] was 0.23%, the viability, T/C [26] was 0.45% and the viability, T/C [27] was 0.18%. It also gave a viability, T/C [28] of 0.19%, a viability, T/C [29] of 0.24% and a viability, T/C [30] of 0.32%. For the same compound, the viability, T/C [31] was 0.1%, the viability, T/C [32] was 0.18% and the viability, T/C [33] was 0.1%. The viability, T/C [34] was 0.11%, the viability, T/C [35] was 0.27% and the viability, T/C [36] was 0.19%.

With `COc1cc(C2c3cc4c(cc3C(OC3OC5COC(C)OC5C(O)C3O)C3COC(=O)C23)OCO4)cc(OC)c1O` (stereo unspecified) + CN(C)c1ccc(Nc2c3ccc(NC(=O)CCN4CCCC4)cc3nc3cc(NC(=O)CCN4CCCC4)ccc23)cc1 the IC50 (second compound 0.0316 µM) was 4590 nM, the IC50 (second compound 0.1 µM) was 3500 nM and the IC50 (second compound 0.316 µM) was 2630 nM. The IC50 (second compound 1 µM) was under 31.6 nM, the IC50 (second compound 3.16 µM) was under 31.6 nM and the IC50 (second compound 10 µM) was under 31.6 nM. The viability, T/C [1] was 114%, the viability, T/C [2] was 103% and the viability, T/C [3] was 94.9%. For the same compound, the viability, T/C [4] was 79%, the viability, T/C [5] was 51.7% and the viability, T/C [6] was 41.2%. It also gave a viability, T/C [7] of 106%, a viability, T/C [8] of 108% and a viability, T/C [9] of 88.9%. It also gave a viability, T/C [10] of 76%, a viability, T/C [11] of 49.8% and a viability, T/C [12] of 37.9%. It also gave a viability, T/C [13] of 86.4%, a viability, T/C [14] of 87.5% and a viability, T/C [15] of 69.2%. For the same compound, the viability, T/C [16] was 56.5%, the viability, T/C [17] was 54.4% and the viability, T/C [18] was 30.3%. The viability, T/C [19] was 25.3%, the viability, T/C [20] was 15.9% and the viability, T/C [21] was 17.2%. It also gave a viability, T/C [22] of 11.2%, a viability, T/C [23] of 10.6% and a viability, T/C [24] of 13.6%. The viability, T/C [25] was 1.86%, the viability, T/C [26] was 2.35% and the viability, T/C [27] was 2.46%. It also gave a viability, T/C [28] of 1.99%, a viability, T/C [29] of 2.23% and a viability, T/C [30] of 1.76%. For the same compound, the viability, T/C [31] was 0.27%, the viability, T/C [32] was 0.23% and the viability, T/C [33] was 0.79%. For the same compound, the viability, T/C [34] was 0.49%, the viability, T/C [35] was 0.45% and the viability, T/C [36] was 0.34%.
